This note sets out measurements from patent US12636368B2, “Ionizable lipids for nucleic acid delivery” (Global Life Sciences Solutions Canada ULC, priority 2019, dated 2026).

Test [1] has as its system human T cells. As to the kind of experiment: eGFP ELISA after eGFP mRNA LNP treatment of human T cells. It counts as cell-based. The conditions noted are these: FIG. 3; CT10, N/P 10, 10 days post-activation, 48 hours. How it is done: Reagents were acquired from Abcam, Cambridge, UK unless otherwise stated. […] The assay was performed as directed by the eGFP SimpleStep ELISA® Kit protocol. Briefly; frozen human T cells, previously isolated from fresh human whole blood using a negative selection protocol, were thawed and activated using a triple activator. […] After 48 hours of treatment with mRNA LNPs the T cells were harvested and lysed for total eGFP content.
In order to expose the isolated and activated T cells (Day 0) to the formulated mRNA, 2 ug of CleanCap™ eGFP (Trilink Biotechnologies, San Diego, CA) mRNA-containing LNP was added to 500,000 T cells in 1 mL of complete T cell media, with 1 ug/mL of Recombinant Human ApoE4 (“ApoE”) (Peprotech Inc., Montreal, Canada).
Frozen human T cells, previously isolated from fresh human whole blood using a negative selection protocol, were thawed and activated using a triple activator. At 10 days post-activation, T cells were dosed with CT10 mRNA LNPs LNP comprising DLin-MC3-DMA, PNI 76, PNI 119, PNI 120, PNI 121, and PNI 122 encoding eGFP at 2 pg mRNA per 500,000 cells and N/P 10. Protein expression was measured after 48 hours by eGFP ELISA.
In general terms: In an ELISA, binding on a coated surface is turned into a signal by an enzyme label.

Test [2] concerns C56BL/6 mice. Nature of the test: hEPO expression in mice after i.v. EPO mRNA LNPs. The test is classed as in vivo. The conditions noted are these: for protein expression in vivo compared with MC3: summary, Table 7 and Figures; for hEPO protein level compared with MC3: FIG. 9, 5-moU EPO mRNA, LM02, N/P 6, 0.5 mg/Kg, 6 h. As for the experimental part:
C56BL/6 mice were administered i.v doses of 0.5, 1 or 3 mg/Kg of recombinant human EPO-encoded mRNA LNPs containing ionizable lipids MC3, PNI 76, PNI 121 and PNI 127 using the LM02 composition at N/P 6; hEPO protein was measured using Quantikine® IVD® ELISA Human Erythropoietin Immunoassay protocol. Results for the 0.5 mg/Kg dosage are shown in the scatter plot of FIG. 7. Results for the 1 and 3 mg/Kg doses are shown in FIG. 8 as scatter plots of hEPO expression levels at 6 h (left) and 24 h (right).
In another study, 5-moU EPO mRNA encapsulated in LM02 LNP at an N/P ratio of 6 and a dose of 0.5 mg/Kg comprising a variety of […] ionizable lipids (PNI 336, PNI 534, PNI 535, PNI 342, PNI 321, PNI 532, PNI 538, PNI 541, PNI 325, PNI 328, PNI 329, PNI 539, PNI 540, PNI 127); along with MC3 as a control, were administered. hEPO protein was measured using ProteinSimple® Ella platform, and the rhEPO microfluidic cartridges provided by the manufacturer.
Blood from mice treated with hEPO mRNA LNP was analyzed using an automated ELISA platform “ELLA”, using Simplex™ antibody panel cartridges. Human-specific EPO and mouse-specific IL-5, IL-6, TNF-α, and IFN-γ were measured (reagents from Bio-techne). Briefly, 50 μL of sample reagent (diluted biological sample, quality control, or calibration point sample) were aliquoted into each sample inlet, and 1 mL of wash buffer was added into corresponding inlets on the cartridge. All immunoassay operations (including prime system, flow samples and split them into channels, sample incubation, wash, rehydrate and flow secondary antibody, wash, rehydrate and flow streptavidin dye conjugate, incubate, wash, scan) were processed automatically. Raw signal levels (relative fluorescence units, RFUs), mean signal values, standard deviation, and coefficient of variance (CV) for each glass nanoReactor (GNR) value are provided. RFU values are automatically backfit by the ELLA to produce an analyte concentration per analyte/sample using the manufacturer given calibration methodology.
Reagents were acquired from Quantikine, Minneapolis, MN. The assay was performed as directed on the Quantikine® IVD® ELISA Human Erythropoietin Immunoassay protocol REF DEP00 Package Insert. Briefly; Sera samples of 6 h, and/or 24 h post intravenous administration of 0.5, 1 or 3 mg/kg dose of EPO-encoded mRNA were analyzed for EPO expression analysis, and expressed as mIU/mL. To an EPO antibody pre-coated 96-well microplate, provided by the manufacturer, standards, appropriately diluted sera, and the Horseradish peroxidase (HRP)-conjugated rabbit anti-EPO polyclonal antibody and TMB (Tetramethylbenzidine) as the substrate were added and incubated for 20 minutes. Stop solution (Sulfuric Acid) was added to the wells and the plate was read at 450 nm and the concentration of EPO was calculated. The amount of colour generated is directly proportional to the amount of the conjugate bound to EPO antibody, which in turn is directly proportional to the amount of EPO in the specimen or standard. A standard curve was generated by plotting absorbance versus concentration of provided standards. Quantikine® Human Serum Controls (CEP 01, CEP 03) were used for internal controls.

Test [3] has as its system isolated primary human T cells. Nature of the test: CD19 CAR expression in primary human T cells by mRNA-LNPs. It counts as cell-based. The conditions noted are these: FIG. 11; CT10, N/P 8, 48 h. As for the experimental part:
MRNA containing IL with CT10 composition at N/P 8 was assayed after in vitro exposure. The CAR vector pcDNA3.1 anti-CD19-h(BB Lambda)-EGFP-2nd-CAR (T7 Mut) 7661 bp was purchased from Creative BioLabs, NY, USA.
T cells were isolated from whole blood using a negative isolation procedure and T cell activation, and expansion was carried out by triple activation in ImmunoCult™ Human T Cell Expansion Media as described supra.

With `CCCCC/C=C\C/C=C\CCCCCCCC(=O)O[C@@H]1[C@@H](OC(=O)CCCCCCC/C=C\C/C=C\CCCCC)CO[C@@H]1COC(=O)CCCN(C)C` (racemic) [PNI 121], the “eGFP expression by eGFP ELISA compared with MC3” value in test [1] is on record as “greater than that of MC3”. Further, the “protein expression in vivo compared with MC3” value in test [2] is listed as “equivalent to MC3”.
Take `CCCCC/C=C\C/C=C\CCCCCCCC(=O)O[C@@H]1[C@@H](OC(=O)CCCCCCC/C=C\C/C=C\CCCCC)CO[C@@H]1COC(=O)C1CCN(C)C1` (mixture of isomers) [PNI 328]: in test [2], the “hEPO protein level compared with MC3” value was “compare well to MC3” and the “protein expression in vivo compared with MC3” value is “equivalent to MC3”. For the same molecule, the “CD19 CAR expression compared with PBS” value in test [3] is recorded as “greater than PBS”.
In the case of `CCCCC/C=C\C/C=C\CCCCCCCC(=O)O[C@@H]1[C@@H](OC(=O)CCCCCCC/C=C\C/C=C\CCCCC)CO[C@@H]1COC(=O)C1(C)CCN(C)C1` (mixture of isomers) [PNI 329], in test [2], the “hEPO protein level compared with MC3” value is on record as “compare well to MC3” and the “protein expression in vivo compared with MC3” value was “equivalent to MC3”. In test [3], the “CD19 CAR expression compared with PBS” value was “greater than PBS”.
As to `CCCCC/C=C\C/C=C\CCCCCCCC(=O)O[C@@H]1[C@@H](OC(=O)CCCCCCC/C=C\C/C=C\CCCCC)CO[C@@H]1COC(=O)CCCN1CCCC1` (racemic) [PNI 539], the “hEPO protein level compared with MC3” value in test [2] is reported as “compare well to MC3”.
